According to US11191772B2, “Use” (DSM IP ASSETS B.V., priority 2017, dated 2021):

Assays:
Test in all cases: Antimicrobial efficacy challenge test (in analogy to NF EN ISO11930)
[1] = test system: Staphylococcus epidermidis; type: cell-based; details: for colony counts 24 h: 22° C.
Procedure: (§1) The antimicrobial efficacy is assessed in analogy to the regulatory challenge test method (NF EN ISO11930). Thus, a solution of Erythrulose from DSM Nutritional products in two different concentrations was prepared under sterile conditions. For this the Erythrulose was solubilized in physiological serum with 0.85 wt.-% NaCl. Phenoxyethanol was solubilized in a physiological serum with 0.85 wt.-% NaCl further comprising 5 wt.-% ethanol to ensure solubility. The solutions were deposed in 96-deep well plates (1.6 ml/well). The wells were contaminated with the respective bacterial or the fungal strains at 1.9*10^5 to 8.1*10^5 cfu/ml for the bacteria and 3.3*10^3 to 3.8*10^4 cfu/ml for the fungi to obtain the initial contamination as outlined in table 1 and 2. After contamination each well was thoroughly mixed to ensure a homogeneous distribution of the microorganism. Then each plate was incubated at 22° C. for 24 h. The counting of the (remaining) population was carried out 24 h after contamination.

[2] = test system: Pseudomonas aeruginosa; type: cell-based; details: for colony counts 24 h: 22° C.
Procedure: as §1

[3] = test system: Aspergillus brasiliensis; type: cell-based; details: 22° C.
Procedure: as §1

[4] = test system: Propionibacterium acnes; type: cell-based; details: for colony counts 24 h: 22° C.
Procedure: as §1

[5] = test system: Corynebacterium xerosis; type: cell-based; details: for colony counts 24 h: 22° C.
Procedure: as §1

[6] = test system: Escherichia coli; type: cell-based; details: for colony counts 24 h: 22° C.
Procedure: as §1

[7] = test system: S. aureus; type: cell-based, Staphylococcus aureus; details: Erythrulose 0.4 wt.-%, 24 h after contamination, 22° C., 0 h count 190000
Procedure: as §1

[8] = test system: C. albicans; type: cell-based, Candida albicans; details: Erythrulose 0.4 wt.-%, 24 h after contamination, 22° C., 0 h count 19000
Procedure: as §1

Question: How did the “colony counts 24 h” value ([1]; Erythrulose 0.08% active, Staphylococcus epidermidis, 24 h, t0 count 560000) turn out when O=C(CO)[C@H](O)CO (racemic) [Erythrulose, erythrulose] was run?
Answer: Its value is 0 cfu/ml.

Question: And the “colony counts 24 h” value ([1]; Erythrulose 0.4 wt.-%, S. epidermidis, 24 h after contamination, 0 h count 500000)?
Answer: The value was 0 cfu/ml.

Question: And the “antimicrobial activity (in words)” value ([1]; S. epidermidis, very low concentration (table 2, 0.08%))?
Answer: Its value is “particularly and selectively active”.

Question: What about the “colony counts 24 h” value ([2]; Erythrulose 0.08% active, Pseudomonas aeruginosa, 24 h, t0 count 450000) of the same molecule?
Answer: Its value is 530000 cfu/ml.

Question: What about the “colony counts 24 h” value ([2]; Erythrulose 0.4 wt.-%, P. aeruginosa, 24 h after contamination, 0 h count 810000) of the same molecule?
Answer: The value was 0 cfu/ml.

Question: What about the “antimicrobial activity (in words)” value ([2]; P. aeruginosa, very low concentration (table 2, 0.08%)) of the same molecule?
Answer: The value was “not active anymore”.

Question: What about the “colony counts 24 h” value ([3]; Erythrulose 0.08% active, Aspergillus brasiliensis, 24 h, t0 count 10000) of the same molecule?
Answer: Its value is 10 cfu/ml.

Question: And the “colony counts 24 h” value ([3]; Erythrulose 0.4 wt.-%, A. brasiliensis, 24 h after contamination, 0 h count 38000)?
Answer: The value was 330 cfu/ml.

Question: And the “colony counts 24 h” value ([4]; Erythrulose 0.08% active, Propionibacterium acnes, 24 h, t0 count 310000)?
Answer: The value was 3300 cfu/ml.

Question: What about the “colony counts 24 h” value ([4]; Erythrulose 0.4 wt.-%, P. Acnes, 24 h after contamination, 0 h count 500000) of the same molecule?
Answer: The value was 55000 cfu/ml.

Question: And the “antimicrobial activity (in words)” value ([4]; P. acnes, very low concentration (table 2, 0.08%))?
Answer: The value was “good antimicrobial activity”.

Question: And the “antimicrobial activity (in words)” value ([5]; C. xerosis, very low concentration (table 2, 0.08%))?
Answer: The value was “particularly and selectively active”.

Question: What about the “colony counts 24 h” value ([5]; Erythrulose 0.08% active, Corynebacterium xerosis, 24 h, t0 count 250000) of the same molecule?
Answer: The value was 55 cfu/ml.

Question: What about the “colony counts 24 h” value ([5]; Erythrulose 0.4 wt.-%, C. xerosis, 24 h after contamination, 0 h count 810000) of the same molecule?
Answer: Its value is 0 cfu/ml.

Question: And the “antimicrobial activity (in words)” value ([6]; E. coli, very low concentration (table 2, 0.08%))?
Answer: The value was “not active anymore”.

Question: And the “colony counts 24 h” value ([6]; Erythrulose 0.08% active, Escherichia coli, 24 h, t0 count 250000)?
Answer: Its value is 530000 cfu/ml.

Question: What about the “colony counts 24 h” value ([6]; Erythrulose 0.4 wt.-%, E. coli, 24 h after contamination, 0 h count 440000) of the same molecule?
Answer: The value was 280000 cfu/ml.

Question: And the “colony counts 24 h” value [7]?
Answer: Its value is 0 cfu/ml.

Question: What about the “colony counts 24 h” value [8] of the same molecule?
Answer: The value was 78 cfu/ml.
